BigSolDB 2.1

CO/N=C(\C(=O)N[C@@H]1C(=O)N2C(C(=O)[O-])=C(COC(C)=O)CS[C@H]12)c1csc(N)n1.[Na+]
solubility (mole fraction)
Conditions | in DMF | in DMSO | in NMP | in formamide | in water
278.15 K | 0.0407 | – | 0.000254 | 0.0483 | 0.018
280.15 K | 0.0413 | – | 0.000935 | 0.0503 | 0.0181
282.15 K | – | – | – | – | 0.0182
283.15 K | 0.0436 | – | 0.00152 | 0.053 | 0.0183
285.15 K | 0.0462 | – | 0.00192 | 0.0562 | 0.0184
287.15 K | – | – | – | – | 0.0184
288.15 K | 0.0474 | – | 0.00279 | 0.0596 | 0.0184
290.15 K | 0.0537 | – | 0.00383 | 0.0615 | 0.0185
292.15 K | – | – | – | – | 0.0186
293.15 K | 0.057 | 0.0738 | 0.00524 | 0.0644 | 0.0188
295.15 K | 0.06 | 0.0744 | 0.00869 | 0.0652 | 0.0188
297.15 K | – | 0.0751 | – | – | 0.0189
298.15 K | 0.0662 | 0.0755 | 0.0118 | 0.0674 | 0.0189
300.15 K | 0.069 | 0.077 | 0.038 | 0.0688 | –
302.15 K | – | 0.0777 | – | – | –
303.15 K | 0.0757 | 0.0779 | 0.0737 | 0.0702 | –
305.15 K | 0.0785 | 0.0783 | 0.083 | 0.0719 | –
307.15 K | – | 0.0785 | – | – | –
308.15 K | 0.0845 | 0.0788 | 0.103 | 0.0733 | –
